The results in this text go back to US20240058450A1, “BCL-XL Inhibitory Compounds Having Low Cell Permeability and Antibody Drug Conjugates Including the Same” (AbbVie Inc., priority 2014, published 2024).

Read-outs that look alike come from different tables or passages of the source.

One data set deals with circulating platelets. Description: Number of circulating platelets in mice after a single intraperitoneal injection (thrombocytopenia). The following applies: for thrombocytopenia: after injection of the compound; for Lowest thrombocyte count / Time to lowest count: single intraperitoneal injection.
The next data set concerns the target Bcl-xL (Homo sapiens, UniProt Q07817). As to the kind of experiment: Time Resolved-Fluorescence Resonance Energy Transfer (TR-FRET) binding assay, competition with probe F-Bak. In a few lines:
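TR-FRET binding assay run at room temperature for 2 h after mixing compound with Bcl-xL protein, F-Bak probe and Tb-labelled antibody. Test compounds diluted from a 2× 50 μM stock. Ki values derived via Wang's equation from 520/495 nm emission under 340 nm excitation, in the absence of serum or with 1% HS.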
In general terms: Time-resolved FRET reads energy transfer from a long-lived donor to a nearby acceptor.

For data set [1], the system named is Molt-4 human acute lymphoblastic leukemia cells. Description: Molt-4 cell viability assay (CellTiter-Glo, 48 hours, 10% HS). Format: cell-based. The following applies: Homo sapiens, MOLT-4, 48 h, non-permeabilized cells. An outline of the steps: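 Cells were seeded at 12,500 per well in medium with 10% human serum and exposed to a 3-fold compound dilution series from 10 μM to 0.0005 μM. After 48 h, viable cells were quantified by CellTiter-Glo luminescence. Each concentration was run in duplicate on at least 3 occasions.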
On the technique in general: ATP-based viability assays read luminescence as a measure of living cells.

Data set [2] has as its system permeabilized Bcl-xL dependent Molt-4 cells. Description: Cytochrome C release in selectively (digitonin) permeabilized Molt-4 cells. In kind it is cell-based, human. The following applies: Homo sapiens, MOLT-4, 4 h, 4 h treatment, read-out: Molt-4 Permeabilized Cyt C Release. An outline of the steps:
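Bcl-xL-dependent Molt-4 cells (1×10^6) treated 4 h at 37° C, 5% CO2 with compound in half-log dilutions from 3.0 to 0.01 μM. Plasma membrane selectively permeabilized with digitonin to wash out cytosolic cytochrome C released from mitochondria; release measured as apoptosis proxy.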

Data set [3] relates to permeabilized Molt-4 cells. As to the kind of experiment: JC-1 percent depolarization assay in digitonin permeabilized Molt-4 cells. The following applies: Homo sapiens. In kind it is cell-based. The text has this:
In addition to cytochrome c release, mitochondria undergoing apoptosis frequently lose their transmembrane mitochondrial membrane potential (Bouchier-Hayes et al., 2008, Methods 44(3): 222-228). JC-1 is a cationic carbocyanine dye that accumulates in mitochondria and fluoresces red when mitochondria are healthy and is lost when the mitochondrial membrane is compromised (percentage depolarization; Smiley et al., 1991, Proc. Natl. Acad. Sci. USA, 88: 3671-3675; Reers et al., 1991: Biochemistry, 30: 4480-4486). This loss in signal can be detected in permeabilized cells using a fluorimeter (excitation 545 nm and emission of 590 nm) and is therefore fully quantitative, enhancing both reproducibility and throughput. Specifically, digitonin permeabilized molt-4 cells (75,000/well) were treated with Bcl-xL inhibitors (1000 nM-0.00 nM) for up to 180 minutes at 32° C., with fluorescence determined every 10 minutes. At the maximal signal, the percentage depolarization can be determined for each time concentration of Bcl-xL inhibitors according to the formula:
% Depolarization=1−[(Sample−FCCP)/(DMSO−FCCP)]
DMSO and FCCP (10 μM) are used as negative and positive controls respectively (Ryan & Letai, 2013, Methods 61(2): 156-164). EC50 values were subsequently determined from the resulting concentration-response curves. Good alignment was observed when the ability of Bcl-xL inhibitors to induce cytochrome c release was compared to loss in JC-1 fluorescence in permeabilized Molt-4 cells.

The mark [4] stands for this setting: in the presence of 1% HS, read-out: Bcl-xL Binding Ki (nM, 1% HS).
Setting [5] is: without HS, read-out: Bcl-xL Binding Ki.

Chain of Bcl-xL (Q07817 whole entry): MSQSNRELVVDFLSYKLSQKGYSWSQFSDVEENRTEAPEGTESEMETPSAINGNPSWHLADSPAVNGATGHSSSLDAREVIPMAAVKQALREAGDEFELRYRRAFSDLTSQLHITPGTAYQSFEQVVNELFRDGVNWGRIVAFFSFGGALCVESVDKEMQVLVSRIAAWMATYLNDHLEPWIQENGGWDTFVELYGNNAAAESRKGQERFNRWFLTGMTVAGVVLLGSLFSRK

As for `CNCCOC12CC3(C)CC(C)(CC(Cn4ncc(-c5ccc(N6CCc7cccc(C(=O)Nc8nc9ccccc9s8)c7C6)nc5C(=O)O)c4C)(C3)C1)C2` [Example 1.13.7, 6-[8-(1,3-benzothiazol-2-ylcarbamoyl)-3,4-dihydroisoquinolin-2 (1H)-yl]-3-[1-({3,5-dimethyl-7-[2-(methylamino)ethoxy]tricyclo[3.3.1.1^3,7]dec-1-yl}methyl)-5-methyl-1H-pyrazol-4-yl]pyridine-2-carboxylic acid], in the data set on circulating platelets, the “time of maximal thrombocytopenia following injection” value amounted to 6 h and the thrombocytopenia entry is listed as “caused thrombocytopenia”. Also, in the data set with circulating platelets (dose of 0.61 mg/kg), the “platelet number after dosing” value is 6*10^3 /mm^3. For the same compound, the “decrease of platelet number” value in the data set with circulating platelets (dose of 0.61 mg/kg, from normal count of approximately 6*10^5/mm^3) was determined as 100 fold. For the same compound, in the data set with circulating platelets (dose 0.61 mg/kg), the Lowest thrombocyte count is 6 1/10^3 of the platelet#/mm^3 and the “Time to lowest count” value turned out to be 6 h.
For orientation: Ki means the equilibrium dissociation constant of an inhibitor or competing ligand from its target. Turning to `Cc1c(-c2ccc(N3CCc4cccc(C(=O)Nc5nc6ncccc6s5)c4C3)nc2C(=O)O)cnn1CC12CC3(C)CC(C)(C1)CC(OCCNCCS(=O)(=O)O)(C3)C2` [Example 1.23, 3-{1-[(3,5-dimethyl-7-{2-[(2-sulfoethyl)amino]ethoxy}tricyclo[3.3.1.1^3,7]dec-1-yl)methyl]-5-methyl-1H-pyrazol-4-yl}-6-[8-([1,3]thiazolo[4,5-b]pyridin-2-ylcarbamoyl)-3,4-dihydroisoquinolin-2 (1H)-yl]pyridine-2-carboxylic acid], the Ki amounted to 0.1 nM on Bcl-xL (setting [4]) and 0.006 nM on Bcl-xL (setting [5]). The EC50 was 2720 nM in data set [1], less than 0.5 nM in data set [2] and 0.24 nM in data set [3].
The corresponding values for `CNCCOC12CC3(C)CC(C)(CC(Cn4ncc(-c5ccc(N6CCc7c(OCC(=O)O)ccc(C(=O)Nc8nc9ccccc9s8)c7C6)nc5C(=O)O)c4C)(C3)C1)C2` [Example 1.41, 6-[8-(1,3-benzothiazol-2-ylcarbamoyl)-5-(carboxymethoxy)-3,4-dihydroisoquinolin-2 (1H)-yl]-3-[1-({3,5-dimethyl-7-[2-(methylamino)ethoxy]tricyclo[3.3.1.1^3,7]dec-1-yl}methyl)-5-methyl-1H-pyrazol-4-yl]pyridine-2-carboxylic acid] are 0.81 nM, 0.008 nM, 473 nM, less than 0.5 nM and 0.56 nM.
Turning to `Cc1c(-c2ccc(N3CCc4cccc(C(=O)Nc5nc6ccccc6s5)c4C3)nc2C(=O)O)cnn1CC12CC3(C)CC(C)(C1)CC(OCCNC(CO)CO)(C3)C2` [Example 1.45, 6-[8-(1,3-benzothiazol-2-ylcarbamoyl)-3,4-dihydroisoquinolin-2 (1H)-yl]-3-{1-[(3-{2-[(1,3-dihydroxypropan-2-yl)amino]ethoxy}-5,7-dimethyltricyclo[3.3.1.1^3,7]dec-1-yl)methyl]-5-methyl-1H-pyrazol-4-yl}pyridine-2-carboxylic acid], the Ki was 0.134 nM at Bcl-xL (setting [4]) and less than 0.001 nM on Bcl-xL (setting [5]). Also, the EC50 in data set [1] is 19 nM; in data set [3], 0.13 nM.
Regarding `Cc1c(-c2ccc(-c3cnc4cccc(C(=O)Nc5nc6ccccc6s5)c4c3)nc2C(=O)O)cnn1CC12CC3(C)CC(C)(C1)CC(OCCNCCS(=O)(=O)O)(C3)C2` [Example 1.69, 6-[5-(1,3-benzothiazol-2-ylcarbamoyl)quinolin-3-yl]-3-{1-[(3,5-dimethyl-7-{2-[(2-sulfoethyl)amino]ethoxy}tricyclo[3.3.1.1^3,7]dec-1-yl)methyl]-5-methyl-1H-pyrazol-4-yl}pyridine-2-carboxylic acid], the figures for the Ki on Bcl-xL (setting [4]) and at Bcl-xL (setting [5]) were 4.9 nM and less than 0.01 nM, respectively. Also, in data set [3], the EC50 amounted to 0.14 nM.
As for `Cc1c(-c2ccc(N3CCc4cccc(C(=O)Nc5nc6ccccc6s5)c4C3)nc2C(=O)O)cnn1CC12CC3(C)CC(C)(C1)CC(OCCNC[C@@H](O)[C@@H](O)[C@H](O)CO)(C3)C2` [Example 1.76, 5-{[2-([3-[(4-{6-[8-(1,3-benzothiazol-2-ylcarbamoyl)-3,4-dihydroisoquinolin-2 (1H)-yl]-2-carboxypyridin-3-yl}-5-methyl-1H-pyrazol-1-yl)methyl]-5,7-dimethyltricyclo[3.3.1.1^3,7]dec-1-yl}oxy)ethyl]amino}-5-deoxy-D-arabinitol], the Ki on Bcl-xL (setting [4]) is 1.05 nM; on Bcl-xL (setting [5]), less than 0.01 nM. In addition, the EC50 in data set [1] came to 495 nM; in data set [3], 0.26 nM.
The matching figures for `Cc1c(-c2ccc(N3CCc4cccc(C(=O)Nc5nc6ccccc6s5)c4C3)nc2C(=O)O)cnn1CC12CC3(C)CC(C)(C1)CC(OCCNCC[C@@H](O)[C@H](O)[C@H](O)CO)(C3)C2` [Example 1.77, 1-{[2-({3-[(4-{6-[8-(1,3-benzothiazol-2-ylcarbamoyl)-3,4-dihydroisoquinolin-2 (1H)-yl]-2-carboxypyridin-3-yl}-5-methyl-1H-pyrazol-1-yl)methyl]-5,7-dimethyltricyclo[3.3.1.1^3,7]dec-1-yl}oxy)ethyl]amino}-1,2-dideoxy-D-arabino-hexitol]: 0.166 nM, less than 0.01 nM, 837 nM and 0.099 nM.
The corresponding values for `Cc1c(-c2ccc(N3CCc4cccc(C(=O)Nc5nc6ccccc6s5)c4C3)nc2C(=O)O)cnn1CC12CC3(C)CC(C)(C1)CC(OCCNCC(CO)CO)(C3)C2` [Example 1.79, 6-[8-(1,3-benzothiazol-2-ylcarbamoyl)-3,4-dihydroisoquinolin-2 (1H)-yl]-3-(1-{[3-(2-{[3-hydroxy-2-(hydroxymethyl)propyl]amino}ethoxy)-5,7-dimethyltricyclo[3.3.1.1^3,7]dec-1-yl]methyl}-5-methyl-1H-pyrazol-4-yl)pyridine-2-carboxylic acid] are 3.1 nM, less than 0.01 nM, 104 nM and 0.14 nM.
`Cc1c(-c2ccc(N3CCc4cccc(C(=O)Nc5nc6ccccc6s5)c4C3)nc2C(=O)O)cnn1CC12CC3(C)CC(C)(C1)CC(OCCNCC[C@H](O)CO)(C3)C2` [Example 1.85]: the Ki is 0.4 nM on Bcl-xL (setting [4]) and 0.016 nM on Bcl-xL (setting [5]). Further, the EC50 in data set [1] is 78 nM; in data set [3] it was 0.07 nM.
With `Cc1c(-c2ccc(-c3ccc4cccc(C(=O)Nc5nc6ccccc6s5)c4c3)nc2C(=O)O)cnn1CC12CC3(C)CC(C)(C1)CC(OCCNCCCO[C@@H]1O[C@H](C(=O)O)[C@@H](O)[C@H](O)[C@H]1O)(C3)C2` [Example 1.87, 3-{[2-({3-[(4-{6-[8-(1,3-benzothiazol-2-ylcarbamoyl)naphthalen-2-yl]-2-carboxypyridin-3-yl)-5-methyl-1H-pyrazol-1-yl)methyl]-5,7-dimethyltricyclo[3.3.1.1^3,7]dec-1-yl}oxy)ethyl]amino}propyl beta-D-glucopyranosiduronic acid], the Ki at Bcl-xL (setting [4]) is 0.55 nM; at Bcl-xL (setting [5]), less than 0.01 nM. For the same compound, the figures for the EC50 in data set [1] and in data set [3] were 378 nM and 0.06 nM, respectively.
`CNCCOC12CC3(C)CC(C)(CC(Cn4ncc(-c5ccc(-c6ccc7c[n+]([O-])cc(C(=O)Nc8nc9ccccc9s8)c7c6)nc5C(=O)O)c4C)(C3)C1)C2` [Example 1.88, 6-[4-(1,3-benzothiazol-2-ylcarbamoyl)-2-oxidoisoquinolin-6-yl]-3-[1-({3,5-dimethyl-7-[2-(methylamino)ethoxy]tricyclo[3.3.1.1^3,7]dec-1-yl}methyl)-5-methyl-1H-pyrazol-4-yl]pyridine-2-carboxylic acid]: the results for the Ki at Bcl-xL (setting [4]) and at Bcl-xL (setting [5]) were 3 nM and 0.127 nM, respectively. Besides, the figures for the EC50 in data set [1] and in data set [3] were 96 nM and 0.21 nM, respectively.
With `Cc1c(-c2ccc(N3CCc4cccc(C(=O)Nc5nc6ccccc6s5)c4C3)nc2C(=O)O)cnn1CC12CC3CC(CC(C3)C1)C2` [Example A-1331852, reference compound], in the data set on circulating platelets, the “time of maximal thrombocytopenia following injection” value was 6 h and the thrombocytopenia result is “caused thrombocytopenia”. Also, in the data set with circulating platelets (dose 25 mg/kg), the Lowest thrombocyte count is on record as 9 1/10^3 of the platelet#/mm^3 and the “Time to lowest count” value was 6 h.
